Assay [1] concerns IICR (IP3 induced calcium release) in CHO cells. The assay can be described thus: Assay of IICR (IP3 induced calcium release)-inhibiting action. The class given is cell-based, Chinese hamster. Particulars: CHO cells, 10 μM ATP; for inhibition at 10 µM / inhibition at 30 µM / inhibition at 100 µM: Cricetulus griseus, CHO, read-out: IICR level (percentage of inhibition). An outline of the steps:
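CHO cell medium replaced with calcium-containing BSS; compound added 1 min later, then 10 μM ATP after a further 2 min. Percent inhibition of the ATP-evoked rise in intracellular calcium determined at each compound concentration.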

Assay [2] deals with SOCE (store operated calcium entry) in CHO cells. Put plainly: Assay of SOCE (store operated calcium entry)-inhibiting action. Particulars: CHO cells, thapsigargin; for inhibition at 10 µM / inhibition at 30 µM / inhibition at 100 µM: Cricetulus griseus, CHO, read-out: SOCE level (percentage of inhibition). The class given is cell-based, Chinese hamster. The essentials: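 CHO cells in calcium-free BSS received compound, then 1 μM thapsigargin 2 min later to deplete stores; after 9 min, 2 mM calcium chloride (final) added. Percent inhibition of the rise in intracellular calcium determined at various compound concentrations.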

As for `CC(C)(C)N(CCC(=O)c1cccnc1)Cc1ccccc1` [Example 231, 2-(N-benzyl-t-butyl)aminoethyl-3-pyridylketone], the inhibition – broadly, the relative decrease from the control value, in per cent – at 10 µM in assay [1] (test compound 10 μmol) was determined as 20%; in assay [2] (test compound 10 μmol), 0%. Further, the results for the inhibition at 30 µM in assay [1] (test compound 30 μmol) and in assay [2] (test compound 30 μmol) were 90% and 0%, respectively. Moreover, the inhibition at 100 µM turned out to be 100% in assay [1] (test compound 100 μmol) and 0% in assay [2] (test compound 100 μmol).
Turning to `CC(C)(C)N(CCO)CCC(=O)c1cccnc1` [Example 232, 2-(N-t-butyl-2-hydroxyethyl)aminoethyl-3-pyridylketone], the inhibition at 10 µM in assay [1] (test compound 10 μmol) and in assay [2] (test compound 10 μmol) was 0% in each case. For the same compound, the inhibition at 30 µM in assay [1] (test compound 30 μmol) is 10%; in assay [2] (test compound 30 μmol), 0%. The inhibition at 100 µM in assay [1] (test compound 100 μmol) amounted to 10%; in assay [2] (test compound 100 μmol) it was 0%.
Regarding `CN(CCC(=O)c1ccco1)Cc1ccccc1` [Example 233, 2-(N-benzylmethyl)aminoethyl-2-furylketone], the inhibition at 10 µM in assay [1] (test compound 10 μmol) is 30%; in assay [2] (test compound 10 μmol), 0%. Further, the inhibition at 30 µM in assay [1] (test compound 30 μmol) came out at 70%; in assay [2] (test compound 30 μmol), 0%. The results for the inhibition at 100 µM in assay [1] (test compound 100 μmol) and in assay [2] (test compound 100 μmol) were 80% and 10%, respectively.
On to `CCCCN(CCO)CCC(=O)c1ccco1` [Example 234, 2-(N-2-hydroxyethylbutyl)aminoethyl-2-furylketone], for which the inhibition at 10 µM in assay [1] (test compound 10 μmol) and in assay [2] (test compound 10 μmol) was 0% in each case. Moreover, the inhibition at 30 µM in assay [1] (test compound 30 μmol) came to 70%; in assay [2] (test compound 30 μmol), 0%. The inhibition at 100 µM in assay [1] (test compound 100 μmol) stood at 80%; in assay [2] (test compound 100 μmol), 10%.
`CN(CCO)CCC(=O)c1ccco1` [Example 235, 2-(N-2-hydroxyethylmethyl)aminoethyl-2-furylketone]: the inhibition at 10 µM in assay [1] (test compound 10 μmol) and in assay [2] (test compound 10 μmol) was 0% in each case. The values for the inhibition at 30 µM in assay [1] (test compound 30 μmol) and in assay [2] (test compound 30 μmol) were 90% and 0%, respectively. Besides, the inhibition at 100 µM stood at 80% in assay [1] (test compound 100 μmol) and 0% in assay [2] (test compound 100 μmol).
For the compound `CN(CCC(=O)c1ccsc1)Cc1ccccc1` [Example 236, 2-(N-benzylmethyl)aminoethyl-3-thiophenylketone], the inhibition at 10 µM in assay [1] (test compound 10 μmol) turned out to be 10%; in assay [2] (test compound 10 μmol), 0%. The values for the inhibition at 30 µM in assay [1] (test compound 30 μmol) and in assay [2] (test compound 30 μmol) were 10% and 0%, respectively. Further, the inhibition at 100 µM in assay [1] (test compound 100 μmol) was determined as 80%; in assay [2] (test compound 100 μmol), 20%.
`CC(C)(C)N(CCC(=O)c1ccsc1)Cc1ccccc1` [Example 238, 2-(N-benzyl-t-butyl)aminoethyl-3-thiophenylketone]: the figures for the inhibition at 10 µM in assay [1] (test compound 10 μmol) and in assay [2] (test compound 10 μmol) were 10% and 0%, respectively. In addition, the inhibition at 30 µM in assay [1] (test compound 30 μmol) and in assay [2] (test compound 30 μmol) was 0% each time. In addition, the inhibition at 100 µM in assay [1] (test compound 100 μmol) and in assay [2] (test compound 100 μmol) was 0% in each case.
Consider `CCN(CCC(=O)c1ccc(C)o1)Cc1ccccc1` [Example 239, 2-(N-benzylethyl)aminoethyl-5-methyl-2-furylketone], for which the inhibition at 10 µM in assay [1] (test compound 10 μmol) and in assay [2] (test compound 10 μmol) was 0% each time. Moreover, the values for the inhibition at 30 µM in assay [1] (test compound 30 μmol) and in assay [2] (test compound 30 μmol) were 50% and 0%, respectively. The inhibition at 100 µM was 80% in assay [1] (test compound 100 μmol) and 10% in assay [2] (test compound 100 μmol).
In the case of `Cc1ccc(C(=O)CCN(CCO)C(C)(C)C)o1` [Example 240, 2-(N-2-hydroxyethyl-t-butyl)aminoethyl-5-methyl-2-furylketone], the inhibition at 10 µM in assay [1] (test compound 10 μmol) is 10%; in assay [2] (test compound 10 μmol), 0%. In addition, the inhibition at 30 µM in assay [1] (test compound 30 μmol) stood at 30%; in assay [2] (test compound 30 μmol) it was 0%. In addition, the figures for the inhibition at 100 µM in assay [1] (test compound 100 μmol) and in assay [2] (test compound 100 μmol) were 50% and 0%, respectively.
For the compound `Cc1ccc(C(=O)CCN(C)Cc2ccccc2)o1` [Example 241, 2-(N-benzylmethyl)aminoethyl-5-methyl-2-furylketone], the inhibition at 10 µM in assay [1] (test compound 10 μmol) and in assay [2] (test compound 10 μmol) was 0% throughout. The inhibition at 30 µM in assay [1] (test compound 30 μmol) and in assay [2] (test compound 30 μmol) was 0% in each case. Moreover, the inhibition at 100 µM in assay [1] (test compound 100 μmol) was determined as 70%; in assay [2] (test compound 100 μmol), 10%.
With `CCN(CCC(=O)c1ccccn1)Cc1ccccc1` [Example 242, 2-(N-benzylethyl)aminoethyl-2-pyridylketone], the inhibition at 10 µM in assay [1] (test compound 10 μmol) worked out at 30%; in assay [2] (test compound 10 μmol), 0%. The inhibition at 30 µM in assay [1] (test compound 30 μmol) was found to be 80%; in assay [2] (test compound 30 μmol) it was 0%. In addition, the inhibition at 100 µM in assay [1] (test compound 100 μmol) came out at 90%; in assay [2] (test compound 100 μmol) it was 0%.
On to `O=C(CCN(CCO)CCO)c1ccccn1` [Example 243, 2-(N-bis-2-hydroxyethyl)aminoethyl-2-pyridylketone], for which the inhibition at 10 µM in assay [1] (test compound 10 μmol) and in assay [2] (test compound 10 μmol) was 0% each time. Besides, the inhibition at 30 µM in assay [1] (test compound 30 μmol) and in assay [2] (test compound 30 μmol) was 0% in each case. In addition, the inhibition at 100 µM in assay [1] (test compound 100 μmol) is 50%; in assay [2] (test compound 100 μmol), 0%.
Turning to `CC(C)(C)N(CCO)CCC(=O)c1ccccn1` [Example 244, 2-(N-t-butyl-2-hydroxyethyl)aminoethyl-2-pyridylketone], the inhibition at 10 µM in assay [1] (test compound 10 μmol) and in assay [2] (test compound 10 μmol) was 0% throughout. Moreover, the inhibition at 30 µM in assay [1] (test compound 30 μmol) and in assay [2] (test compound 30 μmol) was 0% each time. Also, the inhibition at 100 µM in assay [1] (test compound 100 μmol) and in assay [2] (test compound 100 μmol) was 0% each time.
In the case of `O=C(CCN(CCO)Cc1ccccc1)c1cccs1` [Example 245, 2-(N-benzyl-2-hydroxyethyl)aminoethyl-2-thiophenylketone], the inhibition at 10 µM in assay [1] (test compound 10 μmol) and in assay [2] (test compound 10 μmol) was 0% throughout. The inhibition at 30 µM in assay [1] (test compound 30 μmol) and in assay [2] (test compound 30 μmol) was 0% each time. Besides, the inhibition at 100 µM in assay [1] (test compound 100 μmol) and in assay [2] (test compound 100 μmol) was 0% throughout.
For the compound `CC(C)(C)N(CCO)CCC(=O)c1cccs1` [Example 246, 2-(N-t-butyl-2-hydroxyethyl)aminoethyl-2-thiophenylketone], the inhibition at 10 µM was determined as 10% in assay [1] (test compound 10 μmol) and 0% in assay [2] (test compound 10 μmol). In addition, the inhibition at 30 µM in assay [1] (test compound 30 μmol) and in assay [2] (test compound 30 μmol) was 0% throughout. Besides, the inhibition at 100 µM in assay [1] (test compound 100 μmol) and in assay [2] (test compound 100 μmol) was 0% throughout.
With `CCCCN(CCO)CCC(=O)c1cccs1` [Example 247, 2-(N-butyl-2-hydroxyethyl)aminoethyl-2-thiophenylketone], the inhibition at 10 µM in assay [1] (test compound 10 μmol) was 10%; in assay [2] (test compound 10 μmol), 0%. The inhibition at 30 µM in assay [1] (test compound 30 μmol) and in assay [2] (test compound 30 μmol) was 0% throughout. Besides, the inhibition at 100 µM in assay [1] (test compound 100 μmol) and in assay [2] (test compound 100 μmol) was 0% in each case.
Regarding `CN(CCC(=O)c1cccnc1)Cc1ccccc1` [Example 248, 2-(N-benzylmethyl)aminoethyl-3-pyridylketone], the inhibition at 10 µM in assay [1] (test compound 10 μmol) and in assay [2] (test compound 10 μmol) was 0% in each case. The inhibition at 30 µM is 10% in assay [1] (test compound 30 μmol) and 0% in assay [2] (test compound 30 μmol). Also, the inhibition at 100 µM in assay [1] (test compound 100 μmol) is 80%; in assay [2] (test compound 100 μmol) it was 0%.
Take `O=C(CCN(CCO)CCO)c1ccncc1` [Example 249, 2-(N-bis-2-hydroxyethyl)aminoethyl-4-pyridylketone]: the inhibition at 10 µM in assay [1] (test compound 10 μmol) and in assay [2] (test compound 10 μmol) was 0% each time. The values for the inhibition at 30 µM in assay [1] (test compound 30 μmol) and in assay [2] (test compound 30 μmol) were 60% and 0%, respectively. Moreover, the values for the inhibition at 100 µM in assay [1] (test compound 100 μmol) and in assay [2] (test compound 100 μmol) were 80% and 20%, respectively.
Take `CCCCN(CCO)CCC(=O)c1ccccn1` [Example 250]: the inhibition at 10 µM in assay [1] (test compound 10 μmol) and in assay [2] (test compound 10 μmol) was 0% throughout. In addition, the inhibition at 30 µM in assay [1] (test compound 30 μmol) is 10%; in assay [2] (test compound 30 μmol), 0%. Further, the inhibition at 100 µM was determined as 20% in assay [1] (test compound 100 μmol) and 0% in assay [2] (test compound 100 μmol).
Regarding `CN(CCO)CCC(=O)c1ccccn1` [Example 251, 2-(N-methyl-2-hydroxyethyl)aminoethyl-2-pyridylketone], the inhibition at 10 µM in assay [1] (test compound 10 μmol) and in assay [2] (test compound 10 μmol) was 0% each time. The inhibition at 30 µM in assay [1] (test compound 30 μmol) and in assay [2] (test compound 30 μmol) was 0% throughout. For the same compound, the inhibition at 100 µM in assay [1] (test compound 100 μmol) and in assay [2] (test compound 100 μmol) was 0% each time.
For `CCc1nccnc1C(=O)CCN(CCO)C(C)C` [Example 252, 2-(N-isopropyl-2-hydroxyethyl)aminoethyl-3-ethyl-2-pyrazylketone], the “IICR level (percentage of inhibition)” value in assay [1] (test compound 10 μmol) was 0%; in assay [1] (test compound 30 μmol) it was 0%; in assay [1] (test compound 100 μmol) it was 80%. Also, the “SOCE level (percentage of inhibition)” value in assay [2] (test compound 10 μmol), in assay [2] (test compound 30 μmol) and in assay [2] (test compound 100 μmol) was 0% in each case.
Turning to `CCN(CCC(=O)c1cccs1)Cc1ccccc1` [Example 253, 2-(N-benzylethyl)aminoethyl-2-thiophenylketone], the results for the inhibition at 10 µM in assay [1] (test compound 10 μmol) and in assay [2] (test compound 10 μmol) were 20% and 0%, respectively. Also, the inhibition at 30 µM in assay [1] (test compound 30 μmol) was 0%; in assay [2] (test compound 30 μmol), 10%. Further, the inhibition at 100 µM in assay [1] (test compound 100 μmol) amounted to 20%; in assay [2] (test compound 100 μmol) it was 40%.

The values are drawn from patent US8937091B2 (Japan Science and Technology Agency, priority 2009, dated 2015).
